Experimental data published in article PMC8842279, “Exploring Non-orthosteric Interactions with a Series of Potent and Selective A3 Antagonists” (ACS Medicinal Chemistry Letters, 2022).

What was measured:
[1] = target: T1, hA2A (human A2A adenosine receptor) (Homo sapiens, UniProt P29274); type: binding; settings: human HeLa cells, n = 2
T1 construct: expressed in transfected cells; host or cells: HeLa

[2] = target: T2, hA1 (human A1 adenosine receptor) (Homo sapiens, UniProt P30542); assay: Radioligand binding, displacement of [3H]DPCPX, transfected CHO cells; settings: n = 2, read-out: hA1 % displacement of specific binding at 1 μM
T2 construct: expressed in transfected cells; host or cells: CHO
T2 sequence (P30542 1-326): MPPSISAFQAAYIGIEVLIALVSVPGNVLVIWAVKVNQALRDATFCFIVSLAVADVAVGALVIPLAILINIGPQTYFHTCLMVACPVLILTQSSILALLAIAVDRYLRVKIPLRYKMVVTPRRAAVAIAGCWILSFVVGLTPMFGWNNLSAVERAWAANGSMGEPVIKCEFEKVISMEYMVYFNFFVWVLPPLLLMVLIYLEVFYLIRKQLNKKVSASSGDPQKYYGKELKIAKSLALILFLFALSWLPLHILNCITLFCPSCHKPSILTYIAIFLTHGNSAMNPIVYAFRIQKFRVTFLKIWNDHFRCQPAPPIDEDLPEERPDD
Method: (§1) Briefly, hARs were expressed in transfected CHO (A1AR), HeLa (A2AAR and A3AR), and HEK-293 (A2BAR) cells. (^3H)-8-Cyclopentyl-1,3-dipropylxanthine ([^3H]DPCPX) for A1AR and [^3H]NECA for A3AR were used as radioligands in the assays. […] Ki values were calculated by fitting the data with nonlinear regression using Prism 2.1 software (GraphPad). […].
(§2) Pharmacology. Binding assays
(§3) The adenosinergic profile (affinity and selectivity) of the 18 novel pyrimidine derivatives (7-10) was evaluated in vitro (four human AR subtypes) using radioligand binding assays. Human adenosine receptors were expressed in transfected CHO (A1AR), HeLa (A2AAR and A3AR) and HEK-293 (A2BAR) cells. (3H)-1,3-Dipropyl-8-cyclopentylxanthine ([3H]DPCPX) for A1AR and [3H]NECA for A3AR were employed as radioligands in the assays. […]
displace specific radioligand binding. Ki values were obtained by fitting the data with nonlinear regression using Prism 2.1 software (GraphPad, San Diego, CA).
Furthermore, for A3AR, fluorescence polarization binding experiments were carried out in a 96-well plate (Corning 3650). D-PBS (Sigma D8537) was used as assay buffer. In each well, 100µg of membranes from Hela-A3 cell line previously prepared in our laboratory (Lot: A006/ 17-01-2020, […]
as standard and non-specific binding determined in presence of R-PIA 10µM (Sigma S739). 75 nM of the fluorescent ligand (CELT-228) was added, and the reaction mixture (Vt = 200µl) was incubated for 30 minutes at RT. The polarized fluorescence signal was read in an Infinite M1000 pro multiplate reader (Tecan 30063849). For validation of fluorescence polarization binding assay […] (hA 3AR Ki […]
representation of the concentration-response curves of the […].
(§4) (1 picture or pasted object on this page, not shown here)

[3] = target: T3, hA2B (human A2B adenosine receptor) (Homo sapiens, UniProt P29275); assay: Radioligand binding, displacement of [3H]DPCPX, transfected HEK-293 cells; settings: human HEK-293 cells, n = 2, read-out: hA2B % displacement of specific binding at 1 μM
T3 construct: expressed in transfected cells; host or cells: HEK-293
T3 sequence (P29275 1-332): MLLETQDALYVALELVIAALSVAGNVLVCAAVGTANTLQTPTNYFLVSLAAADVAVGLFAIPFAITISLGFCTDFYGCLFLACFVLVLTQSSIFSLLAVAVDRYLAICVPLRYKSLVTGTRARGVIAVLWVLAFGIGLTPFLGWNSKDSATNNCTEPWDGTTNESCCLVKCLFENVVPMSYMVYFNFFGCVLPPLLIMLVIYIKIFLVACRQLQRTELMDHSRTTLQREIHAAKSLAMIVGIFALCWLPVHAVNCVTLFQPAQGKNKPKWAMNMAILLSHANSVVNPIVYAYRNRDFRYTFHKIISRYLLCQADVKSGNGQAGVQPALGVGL
Method: as §1, §2, §3
displace specific radioligand binding. Ki values were obtained by fitting the data with nonlinear regression using Prism 2.1 software (GraphPad, San Diego, CA). […]
as §4

T1 sequence (P29274 whole entry): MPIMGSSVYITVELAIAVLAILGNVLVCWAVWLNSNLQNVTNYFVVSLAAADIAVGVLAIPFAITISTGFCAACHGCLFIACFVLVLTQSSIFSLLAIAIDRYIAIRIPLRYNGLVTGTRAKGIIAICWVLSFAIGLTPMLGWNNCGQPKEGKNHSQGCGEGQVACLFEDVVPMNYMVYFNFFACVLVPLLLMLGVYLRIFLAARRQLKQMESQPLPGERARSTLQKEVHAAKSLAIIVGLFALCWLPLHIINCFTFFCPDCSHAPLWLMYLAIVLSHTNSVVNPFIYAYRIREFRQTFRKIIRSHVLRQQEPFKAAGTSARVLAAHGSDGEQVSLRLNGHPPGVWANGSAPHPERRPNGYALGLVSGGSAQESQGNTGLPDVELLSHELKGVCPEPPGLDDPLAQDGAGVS

COc1ccc(-c2cc(NC(=O)CCC(=O)NCC(=O)NC(C)(C)C)nc(-c3ccc(OC)cc3)n2)cc1 [7a]
hA2A % displacement of specific binding at 1 μM [1]: 3%
inhibition at 1 µM [2]: 10%
melting point: 176 to 178 °C
inhibition at 1 µM [3]: 4%

COc1ccc(-c2cc(NC(=O)CCC(=O)NCC(=O)NC3CCCCC3)nc(-c3ccc(OC)cc3)n2)cc1 [7b]
hA2A % displacement of specific binding at 1 μM [1]: 9%
inhibition at 1 µM [2]: 5%
melting point: 202 to 204 °C
inhibition at 1 µM [3]: 16%

COc1ccc(-c2cc(NC(=O)CCC(=O)NCC(=O)NCc3ccccc3)nc(-c3ccc(OC)cc3)n2)cc1 [7c]
hA2A % displacement of specific binding at 1 μM [1]: 3%
inhibition at 1 µM [2]: 2%
melting point: 184 to 186 °C
inhibition at 1 µM [3]: 3%

COc1ccc(-c2cc(NC(=O)CCC(=O)N(C)CC(=O)NC(C)(C)C)nc(-c3ccc(OC)cc3)n2)cc1 [7d]
hA2A % displacement of specific binding at 1 μM [1]: 3%
inhibition at 1 µM [2]: 32%
melting point: 136 to 138 °C
inhibition at 1 µM [3]: 10%

COc1ccc(-c2cc(NC(=O)CCC(=O)N(C)CC(=O)NC3CCCCC3)nc(-c3ccc(OC)cc3)n2)cc1 [7e]
hA2A % displacement of specific binding at 1 μM [1]: 11%
inhibition at 1 µM [2]: 9%
inhibition at 1 µM [3]: 1%

COc1ccc(-c2cc(NC(=O)CCC(=O)N(C)CC(=O)NCc3ccccc3)nc(-c3ccc(OC)cc3)n2)cc1 [7f]
hA2A % displacement of specific binding at 1 μM [1]: 20%
inhibition at 1 µM [2]: 32%
inhibition at 1 µM [3]: 2%

COc1ccc(-c2cc(NC(=O)COCC(=O)NCC(=O)NC(C)(C)C)nc(-c3ccc(OC)cc3)n2)cc1 [8a]
hA2A % displacement of specific binding at 1 μM [1]: 9%
inhibition at 1 µM [2]: 7%
inhibition at 1 µM [3]: 3%

COc1ccc(-c2cc(NC(=O)COCC(=O)NCC(=O)NC3CCCCC3)nc(-c3ccc(OC)cc3)n2)cc1 [8b]
hA2A % displacement of specific binding at 1 μM [1]: 9%
inhibition at 1 µM [2]: 6%
melting point: 113 to 115 °C
inhibition at 1 µM [3]: 3%

COc1ccc(-c2cc(NC(=O)COCC(=O)NCC(=O)NCc3ccccc3)nc(-c3ccc(OC)cc3)n2)cc1 [8c]
hA2A % displacement of specific binding at 1 μM [1]: 1%
inhibition at 1 µM [2]: 9%
melting point: 201 to 203 °C
inhibition at 1 µM [3]: 2%

COc1ccc(-c2cc(NC(=O)COCC(=O)N(C)CC(=O)NC(C)(C)C)nc(-c3ccc(OC)cc3)n2)cc1 [8d]
hA2A % displacement of specific binding at 1 μM [1]: 4%
inhibition at 1 µM [2]: 20%
melting point: 115 to 117 °C
inhibition at 1 µM [3]: 2%

COc1ccc(-c2cc(NC(=O)COCC(=O)N(C)CC(=O)NC3CCCCC3)nc(-c3ccc(OC)cc3)n2)cc1 [8e]
hA2A % displacement of specific binding at 1 μM [1]: 8%
inhibition at 1 µM [2]: 13%
melting point: 186 to 188 °C
inhibition at 1 µM [3]: 2%

COc1ccc(-c2cc(NC(=O)COCC(=O)N(C)CC(=O)NCc3ccccc3)nc(-c3ccc(OC)cc3)n2)cc1 [8f]
hA2A % displacement of specific binding at 1 μM [1]: 1%
inhibition at 1 µM [2]: 6%
melting point: 166 to 168 °C
inhibition at 1 µM [3]: 2%

COc1ccc(-c2cc(NC(=O)CCC(=O)N3CCN(CC(=O)NC(C)(C)C)CC3)nc(-c3ccc(OC)cc3)n2)cc1 [9a]
hA2A % displacement of specific binding at 1 μM [1]: 4%
inhibition at 1 µM [2]: 19%
melting point: 203 to 205 °C
inhibition at 1 µM [3]: 1%

COc1ccc(-c2cc(NC(=O)CCC(=O)N3CCN(CC(=O)NC4CCCCC4)CC3)nc(-c3ccc(OC)cc3)n2)cc1 [9b]
hA2A % displacement of specific binding at 1 μM [1]: 1%
inhibition at 1 µM [2]: 9%
inhibition at 1 µM [3]: 1%

COc1ccc(-c2cc(NC(=O)CCC(=O)N3CCN(CC(=O)NCc4ccccc4)CC3)nc(-c3ccc(OC)cc3)n2)cc1 [9c]
hA2A % displacement of specific binding at 1 μM [1]: 9%
inhibition at 1 µM [2]: 6%
melting point: 194 to 195 °C
inhibition at 1 µM [3]: 2%

COc1ccc(-c2cc(NC(=O)COCC(=O)N3CCN(CC(=O)NC(C)(C)C)CC3)nc(-c3ccc(OC)cc3)n2)cc1 [10a]
hA2A % displacement of specific binding at 1 μM [1]: 36%
inhibition at 1 µM [2]: 9%
melting point: 106 to 108 °C
inhibition at 1 µM [3]: 3%

COc1ccc(-c2cc(NC(=O)COCC(=O)N3CCN(CC(=O)NC4CCCCC4)CC3)nc(-c3ccc(OC)cc3)n2)cc1 [10b]
hA2A % displacement of specific binding at 1 μM [1]: 3%
inhibition at 1 µM [2]: 11%
inhibition at 1 µM [3]: 2%

COc1ccc(-c2cc(NC(=O)COCC(=O)N3CCN(CC(=O)NCc4ccccc4)CC3)nc(-c3ccc(OC)cc3)n2)cc1 [10c]
hA2A % displacement of specific binding at 1 μM [1]: 7%
inhibition at 1 µM [2]: 2%
inhibition at 1 µM [3]: 1%

COc1ccc(-c2cc(NC(C)=O)nc(-c3ccc(OC)cc3)n2)cc1 [ISVY-130, N-(2,6-bis(4-methoxyphenyl)pyrimidin-4-yl)acetamide, reference compound]
hA2A % displacement of specific binding at 1 μM [1]: 10%
inhibition at 1 µM [2]: 1%
inhibition at 1 µM [3]: 4%
